From patent US20140120181A1, “COMPOSITION COMPRISING PHOSPHATIDYLCHOLINE AS AN ACTIVE INGREDIENT FOR ATTENUATING TOXICITY OF ANTICANCER AGENT” (AMI Pharm Co., Ltd., priority 2011, published 2014)
“Also recorded” adds a separate entry of the source.

Columns and labels:
[1] = test system: BUN (blood urea nitrogen) and creatine; test: Analysis of kidney function (serum BUN and creatine), oral administration of PC; format: in vivo, Wistar-Hanover rats; details: cisplatin 6 mg/kg i.p. alone (group 13), 6 days, FIG. 4
Procedure: Cisplatin and phosphatidylcholne were used as same as Example 1. But, phosphatidylcholne was suspended in 100 mg/ml of distilled water.
Thirty-six of 6-week-old adult male Wistar-Hanover rats (Nara-biotechnology, Seoul, Korea) were purchased and quarantined for 1 week and divided into 6 groups as shown in Table 4. They were maintained at 22±2° C. in 12 hour light dark cycle, and were given a normal laboratory diet (Purina. Korea) and fresh water ad libitum. Their body weight were 200˜220 g. After quarantine period, rats were fasted for 24 hours prior to injection of first phosphatidylcholine, but were allowed free access to water throughout.
In all groups, saline and cisplatin were injected intraperitoneally and phosphatidylcholine was administered orally. […]
Blood collected in Example <2-1> was centrifuged at 4000 rpm for 10 min and serum was separated. The level of BUN (blood urea nitrogen) and creatine in serum was measured.
The level of BUN was measured by Urase-GLDH method (Laboratory reference values. Urea nitrogen (BUN). Rochester, Minn.: Mayo Foundation for Medical Education and Research; November 2010), creatine was measured by Jaffe method (Jaffe method, Lamb E et al, tiez textbook of clinical chemistry and molecular diagnosis, St. louis; elsevier saunders, 2006; 791-801) and the contents were measured Beckman Coulter AU5421 (Beckman Coulter, USA).

[2] = Measurement of body weight change during the test period; format: in vivo, SD rats; details: for change of body weight: 6 days
Procedure: 6-week aged male SD rats (albino S.D rat) were bought, stabilized for 1 week, and then divided into 6 groups noted in [table 1] for the test. Breeding environment conditions of 24±2° C., and 12-hour light-dark cycles were maintained, and non-antibiotic general solid feed was used.
For all groups, an agent was administered through intraperitoneal injection.
They were bred while changes in their body weights were measured for 6 days. Then, after they were euthanized, their blood samples 5 cc were collected by a cardiac puncture, and their kidneys were extracted for used in a test.
During the test period, a body weight of the test group was measured.

[3] = test system: MDA (malondialdehyde) in kidney tissue; test: Quantification of lipid peroxidation (MDA) in kidney tissue; format: in vivo, Wistar-Hanover rats; details: cisplatin 6 mg/kg i.p. only (group 13), FIG. 5
Procedure: (§1) Kidney samples collected from example <2-1> were immediately removed, washed in 0.9% saline and weighed. The kidneys were the mince with scissors, were homogenized in 0.1M Tris-HCl buffer (pH 7.4). The homogenization was carried out in Teflon-glass homogenizer (Bandelin, Germany) to obtain 1:10 (w/v) dilution. The homogenate was stored at −70° C. until analysis.
Degradation products of lipid peroxidate comprise a lot of carbonyl compounds and the representative is malondialdehyde, MDA. Therefore, the level of lipid peroxidation can be measured by quantification of MDA.
For quantification of MDA, the method of Buege and Aust (1978) were used. The samples were centrifuged at 12,000 g at 4° C. for 15 min, then 0.3 ml supernatant was removed and mixed with 0.9 ml of 8% trichloroacetic acid (TCA). The sample was again centrifuged at 10,000 g at 4° C. for 5 min. A 1 ml aliquot of supernatant was added to 0.25 ml of 1% TBA, and the resulting solution was heated at 100° C. for 20 min. […] After centrifugation at 3,000 g at 4° C. for 5 min, 1 ml of the n-butanol phase was isolated and the absorbance at 532 nm was measured. The standard curve of MDA was calculated from the absorbance and the amount of MDA per weight of tissue was measured and it is shown in FIG. 5A.
MDA content was calculated with MDA standards (Buege and Aust 1978).

kidney tissues = test: Observation of a morphological change in kidney tissues (H&E, optical microscope); format: in vivo, SD rats; details: CDDP 5 mg/kg i.p. alone (group 3), FIG. 3-B
Description: A rats kidney obtained from Example <1-1> was fixed in 10% neutral formalin, sliced by microtechnique, and subjected to haematoxylin & eosin staining through a general tissue processing process. Each of the stained kidney tissues was observed by an optical microscope.

[4] = test system: GSH (glutathione) in kidney tissue; test: Quantification of GSH (glutathione) in kidney tissue; format: in vivo, Wistar-Hanover rats; details: cisplatin 6 mg/kg i.p. only (group 13), FIG. 6
Procedure: as §1
The total GSH content of kidney tissue prepared in the Example <2-3> was determined using a modification of the method of Beutler et al. (Beutler, Duron et al. 1963). The method uses principle that when DTNB (5′5-dithiobis-2-nitro-benzoic acid) and GHS react, 2-nitro-5-thiobenzoic acid (yellow color) are produced. Therefore, the concentration of GSH can be determined by measuring absorbance at 412 nm.
A mitochondrial fraction was prepared by centrifugation at 600 g for 5 mins and samples were added to 5% of metaphosphoric acid (MPA) and allowed to stand for 5 mins to precipitate proteins. 1M of Phosphate buffer (pH 7.0) was added to proteins in the volumetric ratio of 1:4 for homogenization and DTNB (5′5-dithiobis-2-nitro-benzoic acid) were added to proteins in the volumetric ratio of 8:5 for color development. GSH was determined by measuring absorbance at 415 nm (shimadzu UV-1240) and absolute concentrations were calculated using a GSH standard (Sigma, USA).

[5] = test system: catalase, GPx (glutathione peroxidase), SOD (superoxide dismutase); test: Activity of catalase, GPx, SOD in kidney tissue; format: in vivo, Wistar-Hanover rats; details: cisplatin 6 mg/kg i.p. only (group 13), FIG. 7
Procedure: as §1
The activities of catalase, GPx, SOD which are anti-oxidative enzymes in kidney tissue were measured by a commercial kit.
Since catalase decomposes H2O2 into water and oxygen, the activity of CAT was measured through decreased absorbance by decomposition of H2O2. The absorbance was measured by using catalase assay kit (Sigma, CAT #100).
The activity of GPx was measured by using Glutathione peroxidase cellular activity assay kit CGP-1 (Sigma Aldrich, Cat. #CGP1). […] The decrease in NADPH absorbance measured at 340 nm, during the oxidation of NADPH to NADP is was indicative of GPx activity.
The activity of SOD is measured using the SOD assay kit (19160 SOD determination kit, Fluka/sigma Aldrich). The amount inhibiting 50% of xanthine oxidase activity per 1 mg of protein was set as 1 unit and the absorbance was measured at 450 nm.

[6] = test system: BUN (blood urea nitrogen) and creatinine; test: Test on a kidney function (serum BUN and creatinine), cisplatin nephrotoxicity, intra-peritoneal PC; format: in vivo, SD rats; details: PC i.p. 1 hour after CDDP 5 mg/kg i.p.
Procedure: The separated serum was used to measure BUN (blood urea nitrogen) and creatinine.
The measurement of BUN was carried out by using a BUN measuring kit (Young dong diagnostics) in the same manner as described below. A urea agent 0.1 ml was mixed with buffer 20 ml to prepare enzyme buffer, and the prepared enzyme buffer was added to each of 2 test tubes. To one of the test tubes, a to-be-tested serum sample 0.02 ml was added, and to the other test tube, a control reference solution [containing urea-N 60 mg/100 ml] 0.02 ml was added, followed by culturing at 37° C. for 15 min. Then, each test tube was added with chromogenic solution 2 ml, and cultured at 37° C. for 5 min again. By measuring the absorbance at 570 nm, the level of produced BUN was measured.
The measurement of creatinine was carried out by using a creatinine measuring kit (young dong diagnostics) in the same manner as described below. […] Exactly after 15 min, at 515 nm, absorbency was measured.

ICR mice = test: Lethality reducing effect by paclitaxel (LD50 of paclitaxel with PC pretreatment); format: in vivo; details: PC 0, 300, 600 mg/kg i.p. 4 hours before Taxol i.p.; lethality after 24 hours, FIG. 8; listed as phosphatidylcholine
Procedure: 6-week aged ICR mice (Samtako, Korea) were bought, and divided into 15 groups noted in table 5. They were stabilized for 20 hrs under conditions of 24±2° C., and 12-hour light-dark cycles while being fed with non-antibiotic general solid feed. […] After being stabilized, the mice were intra-peritoneally injected with the same phosphatidylcholine as that used in <Example 1-1>. After 4 hours, Taxol™ (BMS©, paclitaxel 6 mg/ml) was intra-peritoneally injected to the mice in which its amount was adjusted in such a manner that paclitaxel can be administered in an amount noted in table 5 below.
After 24 hours from administration of taxol, lethality of mice was measured. Based on the measured data on lethality, LD50 (a paclitaxel dose at lethality of 50%) in each of A, B, and C groups was measured.

rats = test: Lethality after 6 days, CDDP with or without PC; format: in vivo, SD rats; details: PC 400 mg/kg i.p. alone (group 8)
Procedure: As noted in [table 3], a test group was prepared, and administered with a drug. After 6 days, lethality was calculated. An administration method, a test animal and a breeding method, etc. were the same as those in Example <1-1>.

Row | Compound | BUN level in serum [1] | creatine level in serum [1] | change of body weight ([2]; CDDP 5 mg/kg i.p. alone (group 3)) [%] | change of body weight ([2]; CDDP 5 mg/kg i.p. alone (group 3), listed as cisplatin) | body weight decreased by ([2]; CDDP 5 mg/kg i.p. alone (group 3), test period) | MDA level in kidney tissue [3] | morphological change in kidney tissues (kidney tissues) | level of glutathione in kidney tissue [4] | levels of the anti-oxidative enzymes (catalase, GPx, SOD) in kidney tissue [5] | change of body weight ([2]; PC 400 mg/kg i.p. alone (group 2)) | PC dose at which nephrotoxicity caused by CDDP was reduced [6] [mg/kg] | LD50 of paclitaxel (ICR mice) | lethal rate (rats) [%]
1 | N.N.[Cl][Pt][Cl] [CDDP, cis-dichlorodiammineplatinum] | increase | increase | −7.1 | reduction in body weight | about 7.1% | very high compared to control group 11 | most epithelial cells in a proximal part and a distal part of the kidney showed a necrotic change through an inflammatory reaction | significantly low compared to control group 11 | significantly reduced compared to control group 11 | – | – | – | –
2 | CCCCC/C=C/CCCCCCCC(=O)OC(COC(=O)CCCCCCCCCCCCC)COP(=O)([O-])OCC[N+](C)(C)C [PC, 1,2-diacyl-L-3-glycerylphosphorylcholine] | – | – | – | – | – | – | – | – | – | +9.2% | ≥ 600 | tends to increase; also recorded: increases depending on dosage of phosphatidylcholine | 0
